According to US7273848B2, “Apolipoprotein A-I agonists and their use to treat dyslipidemic disorders” (priority 1997, dated 2007):
Non-standard residues stand in square brackets, D forms with d. Residues, ends and D or L forms follow the SMILES beside them. No end group written: not given here. Aib = CC(C)(N)C(=O)O

Each compound was assayed against T1, LCAT (purified from human plasma) (Homo sapiens, UniProt P04180) (assay: LCAT activation assay). Conditions: LCAT activation as compared with native human ApoA-I (= 100%), equivalent masses.
T1 construct: from tissue; host or cells: human plasma
T1 sequence (P04180 25-440): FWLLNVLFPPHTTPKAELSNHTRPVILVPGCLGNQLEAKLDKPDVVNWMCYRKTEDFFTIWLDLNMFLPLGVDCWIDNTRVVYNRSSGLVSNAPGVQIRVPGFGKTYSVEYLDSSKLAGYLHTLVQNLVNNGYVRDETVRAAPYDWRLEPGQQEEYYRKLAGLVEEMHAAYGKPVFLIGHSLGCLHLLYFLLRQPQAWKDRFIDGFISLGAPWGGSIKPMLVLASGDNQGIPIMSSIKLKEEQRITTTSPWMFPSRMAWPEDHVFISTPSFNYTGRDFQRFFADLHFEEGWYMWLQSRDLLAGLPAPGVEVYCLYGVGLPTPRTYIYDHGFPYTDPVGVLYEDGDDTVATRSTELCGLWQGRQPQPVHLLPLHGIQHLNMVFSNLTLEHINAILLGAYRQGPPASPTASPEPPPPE
Format: biochemical
Method: The peptides synthesized as described in Section 6, supra, were analyzed in vitro for their ability to activate LCAT. In the LCAT assay, substrate vesicles (small unilamellar vesicles or “SUVs”) composed of egg phophatidylcholine (EPC) or 1-Palmitoyl-2-oleyl-phosphatidyl-choline (POPC) and radiolabelled cholesterol are preincubated with equivalent masses either of peptide or ApoA-I (isolated from human plasma). The reaction is initiated by addition of LCAT (purified from human plasma). Native ApoA-I, which was used as positive control, represents 100% activation activity. “Specific activity” (i.e., units of activity (LCAT activation)/unit of mass) of the peptides can be calculated as the concentration of peptide that achieves maximum LCAT activation. For example, a series of concentrations of the peptide (e.g., a limiting dilution) can be assayed to determine the “specific activity” for the peptide—the concentration which achieves maximal LCAT activation (i.e., percentage conversion of cholesterol to cholesterol ester) at a specific timepoint in the assay (e.g., 1 hr.). When plotting percentage conversion of cholesterol at, e.g., 1 hr., against the concentration of peptide used, the “specific activity” can be identified as the concentration of peptide that achieves a plateau on the plotted curve.
The vesicles used in the LCAT assay are SUVs composed of egg phosphatidylcholine (EPC) or 1-palmitoyl-2-oleyl-phosphatidylcholine (POPC) and cholesterol with a molar ratio of 20:1. To prepare a vesicle stock solution sufficient for 40 assays, 7.7 mg EPC (or 7.6 mg POPC; 10 μmol), 78 μg (0.2 μmol) 4-^14C-cholesterol, 116 μg cholesterol (0.3 μmol) are dissolved in 5 ml xylene and lyophilized. Thereafter 4 ml of assay buffer is added to the dry powder and sonicated under nitrogen atmosphere at 4° C. Sonication conditions: Branson 250 sonicator, 10 mm tip, 6×5 minutes; Assay buffer: 10 mM Tris, 0.14 M NaCl, 1 mM EDTA, pH 7.4). The sonicated mixture is centrifuged 6 times for 5 minutes each time at 14,000 rpm (16,000×g) to remove titanium particles. The resulting clear solution is used for the enzyme assay.
For the LCAT purification, dextran sulfate/Mg^2+ treatment of human plasma is used to obtain lipoprotein deficient serum (LPDS), which is sequentially chromatographed on Phenylsepharose, Affigelblue, ConcanavalinA sepharose and anti-ApoA-I affinity chromatography, as summarized for a representative purification in TABLE IX, below: […]

Compound	ACTIVITY (%) LCAT
CC(C)C[C@H](NC(=O)[C@H](C)NC(=O)[C@H](Cc1c[nH]c2ccccc12)NC(=O)[C@H](CC(C)C)NC(=O)C(C)(C)NC(=O)[C@H](CCC(=O)O)NC(=O)[C@H](CC(N)=O)NC(=O)[C@H](CC(C)C)NC(=O)[C@H](CCCCN)NC(=O)[C@H](CCC(=O)O)NC(=O)[C@H](CCCNC(=N)N)NC(=O)[C@H](Cc1ccccc1)NC(=O)[C@H](CCC(=O)O)NC(=O)[C@H](CC(=O)O)NC(=O)[C@H](CC(C)C)NC(=O)[C@@H](NC(=O)[C@@H]1CCCN1)C(C)C)C(=O)N[C@@H](CCCCN)C(=O)N[C@@H](CCC(N)=O)C(=O)N[C@@H](CCCCN)C(=O)N[C@@H](CC(C)C)C(=O)N[C@@H](CCCCN)C(=O)O [compound 89, PVLDEFREKLNEXLWALKQKLK] (H-PVLDEFREKLNE[Aib]LWALKQKLK-OH)	6%
CC(C)C[C@H](NC(=O)[C@H](C)NC(=O)[C@H](CCC(=O)O)NC(=O)[C@H](CC(C)C)NC(=O)C(C)(C)NC(=O)[C@H](CC(C)C)NC(=O)[C@H](CC(N)=O)NC(=O)[C@H](CC(C)C)NC(=O)[C@H](CC(C)C)NC(=O)[C@H](CCC(=O)O)NC(=O)[C@H](CCCNC(=N)N)NC(=O)[C@H](Cc1ccccc1)NC(=O)[C@H](CC(C)C)NC(=O)[C@H](CC(=O)O)NC(=O)[C@H](CC(C)C)NC(=O)[C@@H](NC(=O)[C@@H]1CCCN1)C(C)C)C(=O)N[C@@H](CCCCN)C(=O)N[C@@H](CCC(N)=O)C(=O)N[C@@H](CCCCN)C(=O)N[C@@H](CC(C)C)C(=O)N[C@@H](CCCCN)C(=O)O [compound 95, PVLDLFRELLNLXLEALKQKLK] (H-PVLDLFRELLNL[Aib]LEALKQKLK-OH)	5%
CC(C)C[C@H](NC(=O)[C@H](CCCCN)NC(=O)[C@H](CCC(N)=O)NC(=O)[C@H](CCCCN)NC(=O)C(C)(C)NC(=O)[C@H](C)NC(=O)[C@H](CCC(=O)O)NC(=O)[C@H](CC(C)C)NC(=O)[C@H](CCC(=O)O)NC(=O)[C@H](CCC(=O)O)NC(=O)[C@H](CC(N)=O)NC(=O)[C@H](CC(C)C)NC(=O)[C@H](CCCCN)NC(=O)[C@H](CCC(=O)O)NC(=O)[C@H](CCCNC(=N)N)NC(=O)[C@H](Cc1ccccc1)NC(=O)[C@H](CCC(=O)O)NC(=O)[C@H](CC(=O)O)NC(=O)[C@H](CC(C)C)NC(=O)[C@@H](NC(=O)[C@@H]1CCCN1)C(C)C)C(=O)N[C@@H](CCCCN)C(=O)O [compound 119, PVLDEFREKLNEELEAXKQKLK] (H-PVLDEFREKLNEELEA[Aib]KQKLK-OH)	0%
CC(C)C[C@H](NC(=O)[C@H](C)NC(=O)[C@H](CCC(=O)O)NC(=O)[C@H](CC(C)C)NC(=O)[C@H](CC(C)C)NC(=O)[C@H](CCC(=O)O)NC(=O)[C@H](CC(N)=O)NC(=O)[C@H](CC(C)C)NC(=O)[C@H](CC(C)C)NC(=O)[C@H](CCC(=O)O)NC(=O)[C@H](CCCNC(=N)N)NC(=O)[C@H](Cc1ccccc1)NC(=O)[C@H](CC(C)C)NC(=O)[C@H](CC(=O)O)NC(=O)[C@H](CC(C)C)NC(=O)[C@@H](NC(=O)[C@H]1CCCN1)C(C)C)C(=O)N[C@@H](CCCCN)C(=O)N[C@@H](CCC(N)=O)C(=O)N[C@@H](CCCCN)C(=O)N[C@@H](CC(C)C)C(=O)N[C@@H](CCCCN)C(=O)N[C@@H](CCCCN)C(=O)O [compound 5]	90%
PVLELFLNLLERLLDWLQKKLK [compound 158]	30%
GVLDLFRELLNEGLEALKQKLK [compound 13]	67%
CC(C)C[C@H](NC(=O)[C@H](C)NC(=O)[C@H](CCC(=O)O)NC(=O)[C@H](CC(C)C)NC(=O)C(C)(C)NC(=O)[C@H](Cc1c[nH]c2ccccc12)NC(=O)[C@H](CC(N)=O)NC(=O)[C@H](CC(C)C)NC(=O)[C@H](CC(C)C)NC(=O)[C@H](CCC(=O)O)NC(=O)[C@H](CCCNC(=N)N)NC(=O)[C@H](Cc1ccccc1)NC(=O)[C@H](CC(C)C)NC(=O)[C@H](CC(=O)O)NC(=O)[C@H](CC(C)C)NC(=O)[C@@H](NC(=O)[C@@H]1CCCN1)C(C)C)C(=O)N[C@@H](CCCCN)C(=O)N[C@@H](CCC(N)=O)C(=O)N[C@@H](CCCCN)C(=O)N[C@@H](CC(C)C)C(=O)N[C@@H](CCCCN)C(=O)O [compound 101, PVLDLFRELLNWXLEALKQKLK] (H-PVLDLFRELLNW[Aib]LEALKQKLK-OH)	2%
Ac-PVLDLFREGLEELKQKLK-NH2 [compound 228]	0%
PVLELFENLGERLLDALQKKLK [peptide 151]	55%
Ac-PLLELLKELLEELKQKLK-NH2 [compound 206]	57%
PVLELFLNLWERLLDALQKKLK [peptide 155]	38%
CC(C)C[C@H](NC(=O)[C@H](C)NC(=O)[C@H](CCC(=O)O)NC(=O)[C@H](CC(C)C)NC(=O)[C@H](CC(C)C)NC(=O)[C@H](CCC(=O)O)NC(=O)[C@H](CC(N)=O)NC(=O)[C@H](CC(C)C)NC(=O)[C@H](CC(C)C)NC(=O)[C@H](CCC(=O)O)NC(=O)[C@H](CCCNC(=N)N)NC(=O)[C@H](Cc1ccccc1)NC(=O)[C@H](CC(C)C)NC(=O)[C@H](CC(=O)O)NC(=O)[C@H](CC(C)C)NC(=O)[C@@H](NC(=O)[C@H]1CCCN1)C(C)C)C(=O)N[C@@H](CCCCN)C(=O)N[C@@H](CCC(N)=O)C(=O)N[C@@H](CCCCN)C(=O)N[C@@H](CC(C)C)C(=O)N[C@@H](CCCCN)C(=O)O [compound 21]	57%
PVLELFDNLLDKLLDALQKKLR [compound 180]	8%
CC(C)C[C@H](NC(=O)[C@H](C)NC(=O)[C@H](CCC(=O)O)NC(=O)[C@H](CC(C)C)NC(=O)C(C)(C)NC(=O)[C@H](CCC(=O)O)NC(=O)[C@H](CC(N)=O)NC(=O)[C@H](CC(C)C)NC(=O)[C@H](CCCCN)NC(=O)[C@H](CCC(=O)O)NC(=O)[C@H](CCCNC(=N)N)NC(=O)[C@H](Cc1ccccc1)NC(=O)[C@H](CCC(=O)O)NC(=O)[C@H](CC(=O)O)NC(=O)[C@H](CC(C)C)NC(=O)[C@@H](N)C(C)C)C(=O)N[C@@H](CCCCN)C(=O)N[C@@H](CCC(N)=O)C(=O)N[C@@H](CCCCN)C(=O)N[C@@H](CC(C)C)C(=O)N[C@@H](CCCCN)C(=O)O [compound 65, ~VLDEFREKLNEXLEALKQKLK] (H-VLDEFREKLNE[Aib]LEALKQKLK-OH)	15%
PVLDEFRELLNEELEALKQKLK [compound 103]	1%
GIKKFLGSIWKFIKAFVG [peptide 242, reference compound]	7%
PVLELFLNLLEKLLDALQKKLK [compound 166]	22%
PVLELFENLLERLFDALQKKLK [peptide 147]	76%
CC(C)C[C@H](NC(=O)[C@H](C)NC(=O)[C@H](CCC(=O)O)NC(=O)[C@H](CC(C)C)NC(=O)C(C)(C)NC(=O)[C@H](CCC(=O)O)NC(=O)[C@H](Cc1c[nH]c2ccccc12)NC(=O)[C@H](CC(C)C)NC(=O)[C@H](CCCCN)NC(=O)[C@H](CCC(=O)O)NC(=O)[C@H](CCCNC(=N)N)NC(=O)[C@H](Cc1ccccc1)NC(=O)[C@H](CCC(=O)O)NC(=O)[C@H](CC(=O)O)NC(=O)[C@H](CC(C)C)NC(=O)[C@@H](NC(=O)[C@@H]1CCCN1)C(C)C)C(=O)N[C@@H](CCCCN)C(=O)N[C@@H](CCC(N)=O)C(=O)N[C@@H](CCCCN)C(=O)N[C@@H](CC(C)C)C(=O)N[C@@H](CCCCN)C(=O)O [compound 43, PVLDEFREKLWEXLEALKQKLK] (H-PVLDEFREKLWE[Aib]LEALKQKLK-OH)	25%
PVLELWENLLERLLDALQKKLK [compound 176]	11%
